Structures can show the parent of a compound that is named as a salt.
How the values were obtained:
[1] = test system: human prostate (carcinoma) cell line (DU 145); assay: Growth inhibition of DU 145 cells, WST-8 assay; format: cell-based; details: 120 h, 5 days with test compound
In short: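 DU 145 cells in RPMI 1640 with 10% FBS were pre-incubated 24 h at 37° C, 5% CO2, then exposed to compound for 5 days. Growth was read by WST-8 reduction (OD 450 minus 630 nm, cell-free blank subtracted). IC50 was taken relative to untreated control.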

[2] = test system: Human prostate cancer cells (LNCaP-Bic); assay: Antitumor effect on LNCaP-Bic tumors transplanted in nude mice, tumor weight; format: in vivo; details: Mus musculus, po, 336 h, 10 mg/kg/day orally, once daily, 14 consecutive days, read-out: T/C(%) (10 mg/kg/day), tumor weight treated/control
Procedure: (§1) Human prostate cancer cells (LNCaP-Bic) were transplanted in nude mice (6 males/group) and the inhibitory effect of the invention on their growth was examined. In the study, the tumor cell suspension with matrigel was inoculated at 0.12 mL/body (2.4×10^6 cells/body) into the subcutaneous space of the right axillary region to prepare tumor bearing mice. When the tumor diameter became 5 mm or more, the animals were allocated to groups based on the tumor volume. The test compound was administered orally as a suspension in 5% gum arabic, once daily, for 14 consecutive days. The control group received 5% gum arabic. Tumor volumes were measured on the following day of the last administration. Tumors were removed and the wet weight of the tumor was measured using an electronic balance. The ratio of the tumor weight in the treated group to that in the control group (T/C %) was calculated as the index for the effect. T/C %=(Mean tumor weight in the treatment group/Mean tumor weight in the control group)×100.

[3] = test system: human prostate (adenocarcinoma) cell line (VcaP); assay: Growth inhibition of VcaP cells, WST-8 assay; format: cell-based; details: 120 h, 5 days with test compound
In short: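 Cells in RPMI 1640 with 10% FBS were preincubated 24 h at 37° C., 5% CO2, then exposed to compound for 5 days. Growth read by WST-8 at 450 nm minus 630 nm, cell-free background subtracted. IC50 derived relative to untreated control.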

[4] = test system: human prostate (carcinoma) cell line (LNCaP.FGC); assay: Growth inhibition of LNCaP.FGC cells, WST-8 assay; format: cell-based; details: 120 h, 5 days with test compound
In short: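 Bicalutamide-resistant LNCaP-Bic cells (and parental LNCaP.FGC) in RPMI 1640 + 10% FBS were preincubated 24 h at 37 °C, 5% CO2, then exposed to compound for 5 days. Growth read by WST-8, OD 450 nm minus 630 nm, cell-free blank subtracted; IC50 (nM) taken relative to untreated control.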

[5] = test system: PSA; assay: Plasma levels of PSA in LNCaP-Bic tumor bearing nude mice, ELISA; format: in vivo; details: Mus musculus, po, 336 h; 10 mg/kg/day orally, once daily, 14 consecutive days; plasma PSA by ELISA; read-out: T/C(%) (10 mg/kg/day), plasma levels of PSA treated/control
Procedure: as §1
The heparinized blood was collected from the postcava under diethylether anesthesia. The plasma levels of PSA were measured using ELISA. The ratio of the plasma levels of PSA in the treated group to that in the control group (T/C %) was calculated as the index for the effect. T/C %=(Mean plasma levels of PSA in the treatment group/Mean plasma levels of PSA in the control group)×100.

[6] = test system: bicalutamide resistant human prostate cancer cell line established from LNCaP.FGC (LNCaP-Bic); assay: Growth inhibition of LNCaP-Bic cells, WST-8 assay; format: cell-based; details: 120 h, 5 days with test compound
In short: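 Cells in RPMI 1640 with 10% FBS preincubated 24 h at 37 °C, 5% CO2, then exposed to compound for 5 days. WST-8 read-out, OD 450 minus 630 nm after cell-free blank subtraction; IC50 (nM) derived against untreated control growth.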

[7] = test system: human prostate (adenocarcinoma) cell line (PC-3); assay: Growth inhibition of PC-3 cells, WST-8 assay; format: cell-based; details: 120 h, 5 days with test compound
In short: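 Cells seeded in RPMI 1640 with 10% FBS, grown 24 h at 37 °C, 5% CO2, then exposed to compound for 5 days. WST-8 read-out, OD 450 nm minus 630 nm reference, cell-free blank subtracted. IC50 (nM) from growth relative to compound-free control.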

[8] = test system: human hepatic cancer cell line (HuH-7); assay: Growth inhibition of HuH-7 cells, sulforhodamine B method; format: cell-based; details: Homo sapiens, 120 h, 5 days with test compound
Procedure: Growth inhibition of a human breast cancer cell line (MDA-MB-468) was determined by the sulforhodamine B method based on the method of Skehan P. et al. (J Natl Cancer Inst. 1990 Jul. 4; 82(13): 1107-12). In the study, MDA-MB-468 cells were seeded on DMEM medium containing 10% fetal bovine serum in a 96-well microplate. After 24-h incubation at 37° C. in the presence of 5% carbon dioxide, the test compound was added and the cells were incubated for another 5 days. After incubation, a trichloroacetic acid solution was added to yield the final concentration of 10% and the cells were left to stand at 4° C. for 1 hour to fix. Then, the cells were washed with water to remove the medium and trichloroacetic acid and dried in the air. The dried cells were stored at 4° C. until they were stained with sulforhodamine B. To each well, 1% acetic acid solution containing 0.4% sulforhodamine B was added and left to stand for 20 to 30 minutes at room temperature. After discarding the supernatant, each well was washed with 1% acetic acid solution, and 10 mM Tris([…]) solution was added while stirring to elute the dye taken into the cells. Then, the optical density was determined at the measurement wavelength of 492 nm and the reference wavelength of 690 nm, and the difference was calculated. The cell growth activity in each well was defined as the value determined by subtracting the OD in the control well not containing cells (the difference in absorbance between 492 nm and 690 nm) from that in the test well.
The 50% inhibitory concentration (IC50 (nM)) of the test compound was determined by comparing the cell growth activity in the well containing the test compound with that of the control not containing the test compound.
The growth inhibition on a human hepatic cancer cell line (HuH-7) was also determined by the above method.

[9] = test system: human breast cancer cell line (MDA-MB-468); assay: Growth inhibition of MDA-MB-468 cells, sulforhodamine B method; format: cell-based; details: 120 h, 5 days with test compound
In short: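 MDA-MB-468 cells in DMEM/10% FBS were incubated 24 h at 37° C., then exposed to compound for 5 days. After TCA fixation and sulforhodamine B staining, OD 492 nm minus 690 nm was read with cell-free background subtracted. IC50 was set against untreated control.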

IC50 [1]	IC50 [3]	IC50 [4]	melting point	IC50 [6]	IC50 [7]	IC50 [8]	IC50 [9]	Structure (SMILES)	response vs control in vivo at 10 mg/kg [2]	response vs control in vivo at 10 mg/kg [5]
< 10 nM	< 10 nM	< 10 nM	224.4 to 228.8 °C	< 10 nM	< 10 nM			Cc1cc(/C=C/C(=O)N2CCN(Cc3ccc(CCOc4ccc(F)cc4)cc3)CC2)cc(Cl)c1Oc1ccc(OCc2ccc(Cl)cc2)cn1.Cl [Example 429, (E)-3-[3-Chloro-4-({5-[(4-chlorobenzyl)oxy]pyridin-2-yl}oxy)-5-methylphenyl]-1-(4-{4-[2-(4-fluorophenoxy)ethyl]benzyl}piperazin-1-yl)prop-2-en-1-one hydrochloride]	< 50%	< 50%
< 10 nM	< 10 nM	< 10 nM	214.3 to 216.2 °C	< 10 nM	< 10 nM	< 0.01 µM	< 0.01 µM	Cc1cc(/C=C/C(=O)N2CCN(Cc3ccc(CCOc4ccc(F)cc4)cc3)CC2)cc(Cl)c1Oc1ccc(OCc2ccc(F)cc2)cn1.Cl [Example 435, (E)-3-[3-Chloro-4-({5-[(4-fluorobenzyl)oxy]pyridin-2-yl}oxy)-5-methylphenyl]-1-(4-{4-[2-(4-fluorophenoxy)ethyl]benzyl}piperazin-1-yl)prop-2-en-1-one hydrochloride]	< 50%	< 50%
< 10 nM	< 10 nM	< 10 nM	225.1 to 226.6 °C	< 10 nM	< 10 nM			COc1ccc(OCCc2ccc(CN3CCN(C(=O)/C=C/c4cc(C)c(Oc5ccc(OCc6ccc(C)cc6)cn5)c(Cl)c4)CC3)cc2)cc1.Cl [Example 440, (E)-3-[3-Chloro-5-methyl-4-({5-[(4-methylbenzyl)oxy]pyridin-2-yl}oxy)phenyl]-1-(4-{4-[2-(4-methoxyphenoxy)ethyl]benzyl}piperazin-1-yl)prop-2-en-1-one hydrochloride]	< 50%	< 50%
< 10 nM	< 10 nM	< 10 nM	220.1 to 220.3 °C	< 10 nM	< 10 nM	< 0.01 µM	< 0.01 µM	Cc1ccc(OCCc2ccc(CN3CCN(C(=O)/C=C/c4cc(C)c(Oc5ccc(OCc6ccc(Cl)cc6)cn5)c(Cl)c4)CC3)cc2)cc1.Cl [Example 777, (E)-3-[3-chloro-4-({5-[(4-chlorobenzyl)oxy]pyridin-2-yl}oxy)-5-methylphenyl]-1-(4-{4-[2-(4-methylphenoxy)ethyl]benzyl}piperazin-1-yl)prop-2-en-1-one hydrochloride]	< 50%	< 50%
< 10 nM	< 10 nM	< 10 nM		< 10 nM	< 10 nM	< 0.01 µM	< 0.01 µM	Cc1cc(/C=C/C(=O)N2CCN(Cc3ccc(CCOc4ccc(C(C)C)cc4)cc3)CC2)cc(Cl)c1Oc1ccc(OCc2ccc(F)cc2)cn1 [Example 438, (E)-3-[3-Chloro-4-({5-[(4-fluorobenzyl)oxy]pyridin-2-yl}oxy)-5-methylphenyl]-1-[4-(4-{2-[4-(propan-2-yl)phenoxy]ethyl}benzyl)piperazin-1-yl]prop-2-en-1-one hydrochloride]	< 50%	< 50%
< 10 nM	< 10 nM	< 10 nM		< 10 nM	< 10 nM	< 0.01 µM	< 0.01 µM	Cc1ccc(COc2ccc(Oc3c(C)cc(/C=C/C(=O)N4CCN(Cc5ccc(CCOc6ccc(Cl)cc6)cc5)CC4)cc3Cl)nc2)cc1 [Example 408, (E)-3-[3-chloro-5-methyl-4-({5-[(4-methylbenzyl)oxy]pyridin-2-yl}oxy)phenyl]-1-(4-{4-[2-(4-chlorophenoxy)ethyl]benzyl}piperazin-1-yl)prop-2-en-1-one hydrochloride]	< 50%	< 50%
< 10 nM	< 10 nM	< 10 nM	227.1 to 227.2 °C	< 10 nM	< 10 nM	< 0.01 µM	< 0.01 µM	Cc1ccc(COc2ccc(Oc3c(C)cc(/C=C/C(=O)N4CCN(Cc5ccc(CCOc6ccc(F)cc6)cc5)CC4)cc3Cl)nc2)cc1.Cl [Example 430, (E)-3-[3-Chloro-5-methyl-4-({5-[(4-methylbenzyl)oxy]pyridin-2-yl}oxy)phenyl]-1-(4-{4-[2-(4-fluorophenoxy)ethyl]benzyl}piperazin-1-yl)prop-2-en-1-one hydrochloride]	< 50%	< 50%
< 10 nM	< 10 nM	< 10 nM	232.1 to 232.7 °C	< 10 nM	< 10 nM	< 0.01 µM	< 0.01 µM	Cc1ccc(COc2ccc(Oc3c(C)cc(/C=C/C(=O)N4CCN(Cc5ccc(CCOc6ccc(C)cc6)cc5)CC4)cc3Cl)nc2)cc1.Cl [Example 432, (E)-3-[3-Chloro-5-methyl-4-({5-[(4-methylbenzyl)oxy]pyridin-2-yl}oxy)phenyl]-1-(4-{4-[2-(4-methylphenoxy)ethyl]benzyl}piperazin-1-yl)prop-2-en-1-one hydrochloride]	< 50%	< 50%

Source: patent US8722663B2, “Di-substituted pyridine derivatives as anticancers” (Otsuka Pharmaceutical Co., Ltd., priority 2010, dated 2014)
